The values below are quoted from earlier work in patent US20230263874A1, “TUMOR ANTIGENS FOR LIVER CANCER IMMUNOTHERAPY” (ISTITUTO NAZIONALE TUMORI IRCCS - FONDAZIONE G. PASCALE, priority 2020, published 2023).

The subject of the data set is hepatocellular carcinoma. As to conditions: second-line treatment, advanced liver cancer not responded to sorafenib; cited from earlier work.

Consider `CNC(=O)c1cc(Oc2ccc(NC(=O)Nc3ccc(Cl)c(C(F)(F)F)c3)c(F)c2)ccn1` [Regorafenib], for which the “improvement in overall survival” value is on record as 2.8 month and the “reduction risk of death” value is listed as 38%.
